Data taken from patent publication US20040156869A1, “2-substituted quinazolin-4-ylamine analogues” (Neurogen Corporation, priority 2002, published 2004).

Target: human capsaicin receptor (VR1) (Homo sapiens, UniProt Q8NER1)
Assay: Capsaicin receptor binding assay ([3H]RTX competition, VR1-transfected HEK293 membranes)

Sequence of human capsaicin receptor (VR1) (Q8NER1 whole entry): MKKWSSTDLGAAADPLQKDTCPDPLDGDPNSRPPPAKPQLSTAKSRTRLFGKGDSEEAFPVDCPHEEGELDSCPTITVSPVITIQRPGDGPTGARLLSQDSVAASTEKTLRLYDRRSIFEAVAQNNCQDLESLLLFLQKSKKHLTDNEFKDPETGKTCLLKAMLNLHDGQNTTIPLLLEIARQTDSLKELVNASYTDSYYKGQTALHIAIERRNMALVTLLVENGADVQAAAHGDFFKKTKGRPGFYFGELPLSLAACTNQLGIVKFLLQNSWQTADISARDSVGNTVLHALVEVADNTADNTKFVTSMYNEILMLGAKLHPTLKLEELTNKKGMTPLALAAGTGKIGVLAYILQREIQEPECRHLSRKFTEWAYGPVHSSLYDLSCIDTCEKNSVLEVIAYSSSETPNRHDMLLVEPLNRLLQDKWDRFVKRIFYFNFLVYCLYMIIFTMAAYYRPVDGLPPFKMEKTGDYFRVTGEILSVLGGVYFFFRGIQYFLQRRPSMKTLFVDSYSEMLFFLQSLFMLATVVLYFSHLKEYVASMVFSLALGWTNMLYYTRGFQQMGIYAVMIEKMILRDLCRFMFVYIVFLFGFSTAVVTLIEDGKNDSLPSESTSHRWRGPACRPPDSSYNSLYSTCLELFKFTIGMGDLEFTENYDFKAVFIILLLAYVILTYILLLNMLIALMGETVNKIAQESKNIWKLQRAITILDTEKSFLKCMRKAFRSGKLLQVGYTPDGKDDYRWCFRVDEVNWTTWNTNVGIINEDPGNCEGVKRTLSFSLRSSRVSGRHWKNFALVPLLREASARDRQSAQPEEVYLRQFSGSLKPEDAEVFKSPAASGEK

Ki, < 1 µM:
Cc1cccnc1-c1ccc2c(Nc3ccc(C(F)(F)F)cc3)nc(CO)nc2n1 [Compound 119, [7-(3-Methyl-pyridin-2-yl)-4-(4-trifluoromethyl-phenylamino)-pyrido[2,3-d]pyrimidin-2-yl]-methanol]
COCc1nc(Nc2ccc(S(=O)(=O)N3CCOCC3)cc2)c2ncc(-c3ncccc3Cl)cc2n1 [Compound 120, [7-(3-Chloro-pyridin-2-yl)-2-methoxymethyl-pyrido[3,2-d]pyrimidin-4-yl]-[4-(morpholine-4-sulfonyl)-phenyl]-amine]
OCc1nc(Nc2ccc(C(F)(F)F)cc2)c2ncc(-c3ncccc3C(F)(F)F)cc2n1 [Compound 121, [4-(4-Trifluoromethyl-phenylamino)-7-(3-trifluoromethyl-pyridin-2-yl)-pyrido[3,2-d]pyrimidin-2-yl]-methanol]
OCc1nc(Nc2ccc(C(F)(F)F)cc2)c2ncc(-c3ncccc3Cl)cc2n1 [Compound 122, [7-(3-Chloro-pyridin-2-yl)-4-(4-trifluoromethyl-phenylamino)-pyrido[3,2-d]pyrimidin-2-yl]-methanol]
CN(C)CC(C)(C)COCc1nc(Nc2ccc(C(F)(F)F)cc2)c2ccc(-c3ncccc3C(F)(F)F)cc2n1 [Compound 123, [2-(3-Dimethylamino-2,2-dimethyl-propoxymethyl)-7-(3-trifluoromethyl-pyridin-2-yl)-quinazolin-4-yl]-(4-trifluoromethyl-phenyl)-amine]
CC(C)(C)c1ccc(Nc2nc(COCCCN3CCOCC3)nc3cc(-c4ncccc4C(F)(F)F)ccc23)cc1 [Compound 124, (4-tert-Butyl-phenyl)-[2-(3-morpholin-4-yl-propoxymethyl)-7-(3-trifluoromethyl-pyridin-2-yl)-quinazolin-4-yl]-amine]
CC(C)(C)c1ccc(Nc2nc(COCCCCN3CCOCC3)nc3cc(-c4ncccc4C(F)(F)F)ccc23)cc1 [Compound 125, (4-tert-Butyl-phenyl)-[2-(4-morpholin-4-yl-butoxymethyl)-7-(3-trifluoromethyl-pyridin-2-yl)-quinazolin-4-yl]-amine]
COCc1nc(Nc2ccc(S(=O)(=O)N3CCOCC3)cc2)c2ccc(-c3ncccc3C(F)(F)F)cc2n1 [Compound 126, [2-Methoxymethyl-7-(3-trifluoromethyl-pyridin-2-yl)-quinazolin-4-yl]-[4-(morpholine-4-sulfonyl)-phenyl]-amine]
CCOCc1nc(Nc2ccc(S(=O)(=O)N3CCOCC3)cc2)c2ccc(-c3ncccc3C(F)(F)F)cc2n1 [Compound 127, [2-Ethoxymethyl-7-(3-trifluoromethyl-pyridin-2-yl)-quinazolin-4-yl]-[4-(morpholine-4-sulfonyl)-phenyl]-amine]
CC(C)OCc1nc(Nc2ccc(S(=O)(=O)N3CCOCC3)cc2)c2ccc(-c3ncccc3C(F)(F)F)cc2n1 [Compound 128, [2-Isopropoxymethyl-7-(3-trifluoromethyl-pyridin-2-yl)-quinazolin-4-yl]-[4-(morpholine-4-sulfonyl)-phenyl]-amine]
Cc1cccnc1-c1ccc2c(Nc3ccc(C(C)(C)C)cc3)nc(COCC(C)C)nc2n1 [Compound 129, (4-tert-Butyl-phenyl)-[2-isobutoxymethyl-7-(3-methyl-pyridin-2-yl)-pyrido[2,3-d]pyrimidin-4-yl]-amine]
Cc1cccnc1-c1ccc2c(Nc3ccc(C(C)C)cc3)nc(COCC(C)C)nc2n1 [Compound 130, [2-Isobutoxymethyl-7-(3-methyl-pyridin-2-yl)-pyrido[2,3-d]pyrimidin-4-yl]-(4-isopropyl-phenyl)-amine]
Cc1cccnc1-c1ccc2c(Nc3ccc(C(F)(F)F)cc3)nc(COCC(C)C)nc2n1 [Compound 131, [2-Isobutoxymethyl-7-(3-methyl-pyridin-2-yl)-pyrido[2,3-d]pyrimidin-4-yl]-(4-trifluoromethyl-phenyl)-amine]
CCOCc1nc(Nc2ccc(C(C)(C)C)cc2)c2ccc(-c3ncccc3Cl)nc2n1 [Compound 132, (4-tert-Butyl-phenyl)-[7-(3-chloro-pyridin-2-yl)-2-ethoxymethyl-pyrido[2,3-d]pyrimidin-4-yl]-amine]
CCOCc1nc(Nc2ccc(C(C)C)cc2)c2ccc(-c3ncccc3Cl)nc2n1 [Compound 133, [7-(3-Chloro-pyridin-2-yl)-2-ethoxymethyl-pyrido[2,3-d]pyrimidin-4-yl]-(4-isopropyl-phenyl)-amine]
CCOCc1nc(Nc2ccc(C(F)(F)F)cc2)c2ccc(-c3ncccc3Cl)nc2n1 [Compound 134, [7-(3-Chloro-pyridin-2-yl)-2-ethoxymethyl-pyrido[2,3-d]pyrimidin-4-yl]-(4-trifluoromethyl-phenyl)-amine]
CCOCc1nc(Nc2ccc(S(=O)(=O)C(F)(F)F)cc2)c2ccc(-c3ncccc3Cl)nc2n1 [Compound 135, [7-(3-Chloro-pyridin-2-yl)-2-ethoxymethyl-pyrido[2,3-d]pyrimidin-4-yl]-(4-trifluoromethanesulfonyl-phenyl)-amine]
CCOCc1nc(Nc2ccc(C(C)C(F)(F)F)cc2)c2ccc(-c3ncccc3Cl)nc2n1 (stereo not drawn) [Compound 136, [7-(3-Chloro-pyridin-2-yl)-2-ethoxymethyl-pyrido[2,3-d]pyrimidin-4-yl]-[4-(2,2,2-trifluoro-1-methyl-ethyl)-phenyl]-amine]
CCOCc1nc(Nc2ccc(C3CCCC3)cc2)c2ccc(-c3ncccc3Cl)nc2n1 [Compound 137, [7-(3-Chloro-pyridin-2-yl)-2-ethoxymethyl-pyrido[2,3-d]pyrimidin-4-yl]-(4-cyclopentyl-phenyl)-amine]
CCOCc1nc(Nc2ccc(C(F)(F)F)cc2)c2ccc(-c3ncccc3C)nc2n1 [Compound 138, [2-Ethoxymethyl-7-(3-methyl-pyridin-2-yl)-pyrido[2,3-d]pyrimidin-4-yl]-(4-trifluoromethyl-phenyl)-amine]
CCOCc1nc(Nc2ccc(C(C)C)cc2)c2ccc(-c3ncccc3C)nc2n1 [Compound 139, [2-Ethoxymethyl-7-(3-methyl-pyridin-2-yl)-pyrido[2,3-d]pyrimidin-4-yl]-(4-isopropyl-phenyl)-amine]
CCOCc1nc(Nc2ccc(S(=O)(=O)C(F)(F)F)cc2)c2ccc(-c3ncccc3C)nc2n1 [Compound 140, [2-Ethoxymethyl-7-(3-methyl-pyridin-2-yl)-pyrido[2,3-d]pyrimidin-4-yl]-(4-trifluoromethanesulfonyl-phenyl)-amine]
O=S(=O)(c1ccc(Nc2nc(COC3CCOCC3)nc3cc(-c4ncccc4C(F)(F)F)ccc23)cc1)N1CCOCC1 [Compound 141, [4-(Morpholine-4-sulfonyl)-phenyl]-[2-(tetrahydro-pyran-4-yloxymethyl)-7-(3-trifluoromethyl-pyridin-2-yl)-quinazolin-4-yl]-amine]
O=S(=O)(c1ccc(Nc2nc(COCC3CC3)nc3cc(-c4ncccc4C(F)(F)F)ccc23)cc1)N1CCOCC1 [Compound 142, [2-Cyclopropylmethoxymethyl-7-(3-trifluoromethyl-pyridin-2-yl)-quinazolin-4-yl]-[4-(morpholine-4-sulfonyl)-phenyl]-amine]
O=S(=O)(c1ccc(Nc2nc(COC3CCCC3)nc3cc(-c4ncccc4C(F)(F)F)ccc23)cc1)N1CCOCC1 [Compound 143, [2-Cyclopentyloxymethyl-7-(3-trifluoromethyl-pyridin-2-yl)-quinazolin-4-yl]-[4-(morpholine-4-sulfonyl)-phenyl]-amine]
CN(C)CC(O)COCc1nc(Nc2ccc(C(F)(F)F)cc2)c2ccc(-c3ncccc3C(F)(F)F)cc2n1 (stereo not drawn) [Compound 144, 1-Dimethylamino-3-[4-(4-trifluoromethyl-phenylamino)-7-(3-trifluoromethyl-pyridin-2-yl)-quinazolin-2-ylmethoxy]-propan-2-ol]
CCN(CC)CC[C@@H](C)OCc1nc(Nc2ccc(C(C)(C)C)cc2)c2ccc(-c3ncccc3C(F)(F)F)cc2n1 [Compound 145, (4-tert-Butyl-phenyl)-[2-(3-diethylamino-1-methyl-propoxymethyl)-7-(3-trifluoromethyl-pyridin-2-yl)-quinazolin-4-yl]-amine]
CCOCc1nc(Nc2ccc(C(F)(F)F)nc2)c2ccc(-c3ncccc3Cl)nc2n1 [Compound 146, [7-(3-Chloro-pyridin-2-yl)-2-ethoxymethyl-pyrido[2,3-d]pyrimidin-4-yl]-(6-trifluoromethyl-pyridin-3-yl)-amine]
COCc1nc(Nc2ccc(C(F)(F)F)nc2)c2ccc(-c3ncccc3C(F)(F)F)nc2n1 [Compound 147, [2-Methoxymethyl-7-(3-trifluoromethyl-pyridin-2-yl)-pyrido[2,3-d]pyrimidin-4-yl]-(6-trifluoromethyl-pyridin-3-yl)-amine]
COCc1nc(Nc2ccc(C(F)(F)F)nc2)c2ccc(-c3ncccc3C)nc2n1 [Compound 148, [2-Methoxymethyl-7-(3-methyl-pyridin-2-yl)-pyrido[2,3-d]pyrimidin-4-yl]-(6-trifluoromethyl-pyridin-3-yl)-amine]
COCc1nc(Nc2ccc(C3(C#N)CCC3)cc2)c2ccc(-c3ncccc3C)nc2n1 [Compound 149, 1-{4-[2-Methoxymethyl-7-(3-methyl-pyridin-2-yl)-pyrido[2,3-d]pyrimidin-4-ylamino]-phenyl}-cyclobutanecarbonitrile]
CCOCc1nc(Nc2ccc(C3(C#N)CCC3)cc2)c2ccc(-c3ncccc3Cl)nc2n1 [Compound 150, 1-{4-[7-(3-Chloro-pyridin-2-yl)-2-ethoxymethyl-pyrido[2,3-d]pyrimidin-4-ylamino]-phenyl}-cyclobutanecarbonitrile]
Cc1cccnc1-c1ccc2c(Nc3ccc(C4(C#N)CCC4)cc3)nc(COCC(C)C)nc2n1 [Compound 151, 1-{4-[2-Isobutoxymethyl-7-(3-methyl-pyridin-2-yl)-pyrido[2,3-d]pyrimidin-4-ylamino]-phenyl}-cyclobutanecarbonitrile]
